Results: ChEMBL document CHEMBL2434905, “2-Amino-6-chloro-3,4-dihydroquinazoline: A novel 5-HT3 receptor antagonist with antidepressant character” (Bioorg Med Chem Lett, 2013)

How the values were obtained:
D(1B) dopamine receptor = D(1B) dopamine receptor (Homo sapiens, UniProt P21918); experiment: Displacement of [3H]SCH23390 from human recombinant dopamine D5 receptor expressed in HEK cells after 90 mins by scintillation counting analysis; assay type: cell-based, HEK293
D(3) dopamine receptor = D(3) dopamine receptor (Homo sapiens, UniProt P35462); experiment: Displacement of [3H]N-methylspiperone from dopamine D3 receptor (unknown origin) after 90 mins by scintillation counting analysis
D(2) dopamine receptor = D(2) dopamine receptor (Homo sapiens, UniProt P14416); experiment: Displacement of [[3H]N-methylspiperone from human recombinant dopamine D2 receptor expressed in human fibroblasts after 90 mins by scintillation counting analysis
D(1A) dopamine receptor = D(1A) dopamine receptor (Homo sapiens, UniProt P21728); experiment: Displacement of [3H]SCH23390 from human recombinant dopamine D1 receptor expressed in HEK cells after 90 mins by scintillation counting analysis; assay type: cell-based, HEK293
[1] = Displacement of [3H]Flunitrazepam from BZP receptor in rat brain after 90 mins by scintillation counting analysis; assay type: tissue-based
[2] = molecular target: Beta-3 adrenergic receptor (Homo sapiens, UniProt P13945); experiment: Binding affinity to human recombinant beta3-adrenoceptor expressed in HEK cells after 90 mins by radioligand displacement assay; assay type: cell-based, HEK293
Chain of Beta-3 adrenergic receptor (P13945 whole entry): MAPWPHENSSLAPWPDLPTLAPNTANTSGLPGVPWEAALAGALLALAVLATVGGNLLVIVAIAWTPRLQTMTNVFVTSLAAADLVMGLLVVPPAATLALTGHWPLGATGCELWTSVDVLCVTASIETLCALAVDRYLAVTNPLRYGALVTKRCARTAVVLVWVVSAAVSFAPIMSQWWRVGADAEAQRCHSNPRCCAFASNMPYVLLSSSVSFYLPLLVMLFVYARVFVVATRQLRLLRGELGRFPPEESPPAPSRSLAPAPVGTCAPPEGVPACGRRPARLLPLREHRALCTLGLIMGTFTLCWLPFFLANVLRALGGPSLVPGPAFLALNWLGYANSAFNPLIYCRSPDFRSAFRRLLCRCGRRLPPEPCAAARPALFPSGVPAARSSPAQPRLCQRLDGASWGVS

[3] = molecular target: Beta-2 adrenergic receptor (Homo sapiens, UniProt P07550); experiment: Displacement of [3H]CGP12177 from human recombinant beta2-adrenoceptor expressed in HEK cells after 90 mins by scintillation counting analysis; assay type: cell-based, HEK293
Chain of Beta-2 adrenergic receptor (P07550 whole entry): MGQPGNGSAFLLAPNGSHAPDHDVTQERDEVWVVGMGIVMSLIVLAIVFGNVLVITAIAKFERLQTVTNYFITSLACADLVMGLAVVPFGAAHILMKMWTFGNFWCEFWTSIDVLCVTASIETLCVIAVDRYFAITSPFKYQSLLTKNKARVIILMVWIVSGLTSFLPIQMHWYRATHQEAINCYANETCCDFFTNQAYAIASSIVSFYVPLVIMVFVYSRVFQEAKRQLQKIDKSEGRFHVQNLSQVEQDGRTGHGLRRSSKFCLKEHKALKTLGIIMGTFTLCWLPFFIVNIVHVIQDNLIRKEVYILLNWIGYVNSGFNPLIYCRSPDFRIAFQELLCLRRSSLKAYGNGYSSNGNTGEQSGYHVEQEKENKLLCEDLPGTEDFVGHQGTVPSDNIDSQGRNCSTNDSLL

[4] = molecular target: Alpha-1D adrenergic receptor (Homo sapiens, UniProt P25100); experiment: Displacement of [3H]Prazosin from human recombinant alpha1D-adrenoceptor after 90 mins by scintillation counting analysis
Chain of Alpha-1D adrenergic receptor (P25100 whole entry): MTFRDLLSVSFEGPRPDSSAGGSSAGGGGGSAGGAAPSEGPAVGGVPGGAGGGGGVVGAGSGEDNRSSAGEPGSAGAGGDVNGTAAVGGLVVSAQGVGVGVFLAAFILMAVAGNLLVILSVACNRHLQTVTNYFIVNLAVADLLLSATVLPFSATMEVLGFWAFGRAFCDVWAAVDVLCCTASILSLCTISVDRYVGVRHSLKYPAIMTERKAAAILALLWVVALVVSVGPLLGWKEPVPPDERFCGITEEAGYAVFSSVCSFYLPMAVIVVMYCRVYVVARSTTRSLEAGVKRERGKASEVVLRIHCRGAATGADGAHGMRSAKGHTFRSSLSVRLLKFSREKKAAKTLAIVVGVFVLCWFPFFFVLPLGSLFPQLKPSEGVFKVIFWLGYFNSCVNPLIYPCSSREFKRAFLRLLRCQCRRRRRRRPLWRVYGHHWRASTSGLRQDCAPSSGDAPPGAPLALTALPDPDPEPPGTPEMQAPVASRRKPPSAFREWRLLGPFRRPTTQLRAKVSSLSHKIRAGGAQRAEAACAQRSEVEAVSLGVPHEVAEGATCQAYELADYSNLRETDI

[5] = molecular target: Beta-1 adrenergic receptor (Homo sapiens, UniProt P08588); experiment: Binding affinity to human recombinant beta1-adrenoceptor expressed in CHO cells after 90 mins by radioligand displacement assay; assay type: cell-based
Chain of Beta-1 adrenergic receptor (P08588 whole entry): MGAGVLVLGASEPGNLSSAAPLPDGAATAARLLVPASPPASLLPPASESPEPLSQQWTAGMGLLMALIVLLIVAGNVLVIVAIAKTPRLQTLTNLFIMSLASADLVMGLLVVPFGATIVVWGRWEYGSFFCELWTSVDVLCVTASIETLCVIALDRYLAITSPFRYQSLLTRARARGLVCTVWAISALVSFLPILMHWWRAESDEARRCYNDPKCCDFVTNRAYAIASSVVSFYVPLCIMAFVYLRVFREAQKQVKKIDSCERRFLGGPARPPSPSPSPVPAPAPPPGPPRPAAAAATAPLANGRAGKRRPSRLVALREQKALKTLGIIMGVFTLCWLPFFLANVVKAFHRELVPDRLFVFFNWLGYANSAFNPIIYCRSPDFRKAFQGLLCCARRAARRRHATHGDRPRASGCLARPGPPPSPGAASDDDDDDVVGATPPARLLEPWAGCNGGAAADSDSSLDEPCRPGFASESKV

[6] = molecular target: Alpha-1B adrenergic receptor (Homo sapiens, UniProt P35368); experiment: Displacement of [3H]Prazosin from human recombinant alpha1B-adrenoceptor expressed in HEK cells after 90 mins by scintillation counting analysis; assay type: cell-based, HEK293
[7] = molecular target: Alpha-1A adrenergic receptor (Homo sapiens, UniProt P35348); experiment: Displacement of [3H]Prazosin from human recombinant alpha1A-adrenoceptor after 90 mins by scintillation counting analysis
Chain of Alpha-1A adrenergic receptor (P35348 whole entry): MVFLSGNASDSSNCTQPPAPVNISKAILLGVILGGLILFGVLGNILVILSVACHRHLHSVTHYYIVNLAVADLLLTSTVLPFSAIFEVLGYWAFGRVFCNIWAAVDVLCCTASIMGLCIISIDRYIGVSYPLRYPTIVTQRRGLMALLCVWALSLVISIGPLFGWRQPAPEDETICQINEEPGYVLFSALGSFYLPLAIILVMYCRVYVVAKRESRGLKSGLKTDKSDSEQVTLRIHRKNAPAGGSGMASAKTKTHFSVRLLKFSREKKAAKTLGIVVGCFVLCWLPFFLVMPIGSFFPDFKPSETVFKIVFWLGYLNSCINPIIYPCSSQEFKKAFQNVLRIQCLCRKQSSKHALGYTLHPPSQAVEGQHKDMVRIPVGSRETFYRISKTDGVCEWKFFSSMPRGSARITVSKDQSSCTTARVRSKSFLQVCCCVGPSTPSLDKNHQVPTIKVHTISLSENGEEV

[8] = molecular target: Neuronal acetylcholine receptor; alpha4/beta2 (Homo sapiens, UniProt P17787+P43681); experiment: Displacement of [3H]-epibatidine from human alpha4beta2 nAChR transfected in HEK293 cells by scintillation counting analysis; assay type: cell-based
[9] = molecular target: Nicotinic acetylcholine receptor alpha2/beta4 (Homo sapiens, UniProt P02708+P30926); experiment: Displacement of [3H]-epibatidine from human alpha2beta4 nAChR transfected in HEK293 cells by scintillation counting analysis; assay type: cell-based
[10] = molecular target: Neuronal acetylcholine receptor; alpha3/beta2 (Homo sapiens, UniProt P17787+P32297); experiment: Displacement of [3H]-epibatidine from human alpha3beta2 nAChR transfected in HEK293 cells by scintillation counting analysis; assay type: cell-based
[11] = molecular target: Nicotinic acetylcholine receptor alpha2/beta2 (Homo sapiens, UniProt P02708+P17787); experiment: Displacement of [3H]-epibatidine from human alpha2beta2 nAChR transfected in HEK293 cells by scintillation counting analysis; assay type: cell-based
[12] = molecular target: 5-hydroxytryptamine receptor 4 (Homo sapiens, UniProt Q13639); experiment: Displacement of [[3H]GR113808 from human recombinant 5-HT4 receptor after 90 mins by scintillation counting analysis
[13] = molecular target: 5-hydroxytryptamine receptor 6 (Homo sapiens, UniProt P50406); experiment: Displacement of [3H]LSD from human recombinant 5-HT6 receptor expressed in HEK cells after 90 mins by scintillation counting analysis; assay type: cell-based, HEK293
[14] = molecular target: 5-hydroxytryptamine receptor 1B (Homo sapiens, UniProt P28222); experiment: Displacement of [3H]5-CT from human recombinant 5-HT1B receptor expressed in HEK cells after 90 mins by scintillation counting analysis; assay type: cell-based, HEK293
[15] = molecular target: 5-hydroxytryptamine receptor 1E (Homo sapiens, UniProt P28566); experiment: Displacement of [3H]5-HT from human recombinant 5-HT1E receptor expressed in HEK cells after 90 mins by scintillation counting analysis; assay type: cell-based, HEK293
[16] = Displacement of [3H]DTG from sigma2 receptor (unknown origin) expressed in rat PC12 cells after 90 mins by scintillation counting analysis; assay type: cell-based, Homo sapiens; conditions: pc-12
[17] = molecular target: 5-hydroxytryptamine receptor 1A (Homo sapiens, UniProt P08908); experiment: Displacement of [3H]Way100635 from human recombinant 5-HT1A receptor expressed in CHO cells after 90 mins by scintillation counting analysis; assay type: cell-based
Chain of 5-hydroxytryptamine receptor 1A (P08908 whole entry): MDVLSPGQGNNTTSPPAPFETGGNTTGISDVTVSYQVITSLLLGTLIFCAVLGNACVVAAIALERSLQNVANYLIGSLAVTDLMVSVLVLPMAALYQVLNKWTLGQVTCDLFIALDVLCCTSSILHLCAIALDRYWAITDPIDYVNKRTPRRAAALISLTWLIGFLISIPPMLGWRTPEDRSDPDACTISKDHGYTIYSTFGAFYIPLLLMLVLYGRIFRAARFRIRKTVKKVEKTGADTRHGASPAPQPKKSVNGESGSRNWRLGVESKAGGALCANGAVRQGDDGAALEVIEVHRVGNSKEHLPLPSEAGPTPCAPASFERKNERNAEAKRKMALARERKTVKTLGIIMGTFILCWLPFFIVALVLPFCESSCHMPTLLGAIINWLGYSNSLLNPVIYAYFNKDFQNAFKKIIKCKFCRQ

[18] = molecular target: Sigma non-opioid intracellular receptor 1 (Cavia porcellus, UniProt Q60492); experiment: Displacement of [3H]Pentazocine from guinea pig sigma1 receptor after 90 mins by scintillation counting analysis
Chain of Sigma non-opioid intracellular receptor 1 (Q60492 whole entry): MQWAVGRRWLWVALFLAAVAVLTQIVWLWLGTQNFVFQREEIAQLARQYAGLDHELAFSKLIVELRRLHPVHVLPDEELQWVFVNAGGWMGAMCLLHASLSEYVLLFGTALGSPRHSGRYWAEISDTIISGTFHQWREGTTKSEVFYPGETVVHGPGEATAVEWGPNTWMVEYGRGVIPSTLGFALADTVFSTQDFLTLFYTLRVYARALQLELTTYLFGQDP

D(4) dopamine receptor = D(4) dopamine receptor (Homo sapiens, UniProt P21917); experiment: Displacement of [3H]N-methylspiperone from dopamine D4 receptor (unknown origin) after 90 mins by scintillation counting analysis
Chain of D(4) dopamine receptor (P21917 whole entry): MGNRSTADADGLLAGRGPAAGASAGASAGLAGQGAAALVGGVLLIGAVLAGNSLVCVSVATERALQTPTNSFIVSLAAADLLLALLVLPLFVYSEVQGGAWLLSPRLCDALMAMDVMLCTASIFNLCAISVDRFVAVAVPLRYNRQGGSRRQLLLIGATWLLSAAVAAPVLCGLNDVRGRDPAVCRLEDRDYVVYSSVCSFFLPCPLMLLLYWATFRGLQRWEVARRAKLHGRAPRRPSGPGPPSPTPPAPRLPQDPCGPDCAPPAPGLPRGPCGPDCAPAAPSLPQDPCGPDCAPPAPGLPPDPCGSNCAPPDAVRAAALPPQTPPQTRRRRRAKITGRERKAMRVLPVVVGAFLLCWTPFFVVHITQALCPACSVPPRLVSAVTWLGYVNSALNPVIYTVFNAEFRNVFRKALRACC

[19] = molecular target: Alpha-2C adrenergic receptor (Homo sapiens, UniProt P18825); experiment: Displacement of [3H]Rauwolscine from human recombinant alpha2C-adrenoceptor expressed in MDCK cells after 90 mins by scintillation counting analysis; assay type: cell-based
Chain of Alpha-2C adrenergic receptor (P18825 whole entry): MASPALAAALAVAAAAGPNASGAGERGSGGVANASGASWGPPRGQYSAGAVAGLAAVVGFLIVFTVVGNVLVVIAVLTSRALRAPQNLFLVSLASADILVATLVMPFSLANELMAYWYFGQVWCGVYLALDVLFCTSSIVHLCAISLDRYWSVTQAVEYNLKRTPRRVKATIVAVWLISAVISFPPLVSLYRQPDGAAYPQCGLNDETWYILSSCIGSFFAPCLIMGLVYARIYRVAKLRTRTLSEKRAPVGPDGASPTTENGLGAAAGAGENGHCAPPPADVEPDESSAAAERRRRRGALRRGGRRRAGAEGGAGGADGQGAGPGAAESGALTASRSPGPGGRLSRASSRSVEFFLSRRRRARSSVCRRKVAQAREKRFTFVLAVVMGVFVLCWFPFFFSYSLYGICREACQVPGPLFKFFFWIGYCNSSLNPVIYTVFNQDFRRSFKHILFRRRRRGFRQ

[20] = molecular target: Alpha-2B adrenergic receptor (Homo sapiens, UniProt P18089); experiment: Displacement of [3H]Rauwolscine from human recombinant alpha2B-adrenoceptor expressed in HEK cells after 90 mins by scintillation counting analysis; assay type: cell-based, HEK293
Chain of Alpha-2B adrenergic receptor (P18089 whole entry): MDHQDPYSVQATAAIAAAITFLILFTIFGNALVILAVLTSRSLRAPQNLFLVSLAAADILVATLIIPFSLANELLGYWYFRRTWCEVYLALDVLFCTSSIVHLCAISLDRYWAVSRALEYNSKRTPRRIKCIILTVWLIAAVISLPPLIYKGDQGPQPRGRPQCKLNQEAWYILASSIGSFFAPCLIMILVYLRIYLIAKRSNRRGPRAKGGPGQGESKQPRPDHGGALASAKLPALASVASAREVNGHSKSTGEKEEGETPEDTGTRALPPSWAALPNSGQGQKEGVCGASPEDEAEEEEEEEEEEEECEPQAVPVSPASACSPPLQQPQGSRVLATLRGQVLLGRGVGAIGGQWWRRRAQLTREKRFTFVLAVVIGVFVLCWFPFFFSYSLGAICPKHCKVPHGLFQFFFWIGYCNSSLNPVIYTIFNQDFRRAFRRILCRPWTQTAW

[21] = molecular target: Alpha-2A adrenergic receptor (Homo sapiens, UniProt P08913); experiment: Displacement of [3H]Rauwolscine from human recombinant alpha2A-adrenoceptor expressed in MDCK cells after 90 mins by scintillation counting analysis; assay type: cell-based
Chain of Alpha-2A adrenergic receptor (P08913 whole entry): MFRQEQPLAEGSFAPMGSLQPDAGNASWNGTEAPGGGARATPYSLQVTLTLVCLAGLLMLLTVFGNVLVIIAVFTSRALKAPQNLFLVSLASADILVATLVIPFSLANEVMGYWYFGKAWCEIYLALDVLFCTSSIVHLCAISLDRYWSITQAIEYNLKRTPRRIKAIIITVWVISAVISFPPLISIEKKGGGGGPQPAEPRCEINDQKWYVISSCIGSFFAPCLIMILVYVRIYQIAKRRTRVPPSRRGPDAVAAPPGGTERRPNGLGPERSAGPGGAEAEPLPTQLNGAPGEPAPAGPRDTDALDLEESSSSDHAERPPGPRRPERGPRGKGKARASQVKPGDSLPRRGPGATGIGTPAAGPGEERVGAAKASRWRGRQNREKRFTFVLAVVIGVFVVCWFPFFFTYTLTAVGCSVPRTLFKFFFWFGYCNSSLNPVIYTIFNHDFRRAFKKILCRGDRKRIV

- Ki (D(1B) dopamine receptor): > 10 µM
- Ki (D(3) dopamine receptor): > 10 µM
- Ki (D(2) dopamine receptor): > 10 µM
- Ki (D(1A) dopamine receptor): > 10 µM
- Ki [1]: > 10 µM
- Ki [2]: > 10 µM
- Ki [3]: > 10 µM
- Ki [4]: > 10 µM
- Ki [5]: > 10 µM
- Ki [6]: > 10 µM
- Ki [7]: > 10 µM
- Ki [8]: > 10 µM
- Ki [9]: > 10 µM
- Ki [10]: > 10 µM
- Ki [11]: > 10 µM
- Ki [12]: > 10 µM
- Ki [13]: > 10 µM
- Ki [14]: > 10 µM
- Ki [15]: > 10 µM
- Ki [17]: > 10 µM
- Ki [18]: 6.15 µM
- Ki (D(4) dopamine receptor; read-out: Ki): 5.8 µM
- Ki (D(4) dopamine receptor; read-out: pKi (converted)): 5.13 µM
- Ki [19]: 0.84 µM
- Ki [20]: 0.243 µM
- Ki [21]: 0.283 µM
SMILES: Cl.NC1=Nc2ccc(Cl)cc2CN1
- Ki [16]: 2.65 µM
- pKi [16]: 5.6
